Consider one compound from article PMC8466613, “Cocaine Detection by a Laser-Induced Immunofluorometric Biosensor” (Biosensors, 2021).

Molecules are shown by their SMILES.

The test system of the assay is T1, monoclonal anti-benzoylecgonine/cocaine (BEC) antibody IP3G2.
T1 construct: monoclonal antibody, clone IP3G2, mouse, subtype IgG1
Put plainly: indirect competitive ELISA with chemiluminescence detection against BEC-BSA; also competitive immunofluorometric biosensor with Dy-654-labelled antibody. In kind it is binding, Mus musculus.

With `COC(=O)[C@H]1[C@@H](OC(=O)c2ccccc2)C[C@@H]2CC[C@H]1N2C` [cocaine], the concentration for half-maximal inhibition (IC50) is around 0.75 nM.
